In US20120277197A1, “TIGECYCLINE FORMULATIONS” (WYETH, priority 2008, published 2012):

What was measured:
[1] = Effect of pH on stability of tigecycline 0.50 mg/ml in Normal Saline, in a flask at 25° C.; type: physicochemical
Experimental: The effect of pH on the stability of tigecycline formulations having a concentration of 0.50 mg tigecycline/ml in a Normal Saline solution was studied by analyzing the variation of tigecycline content, total impurity content, and the concentration of tigecycline epimer at different pH values, either in the presence of air or under an atmosphere having an oxygen content of less than 1 ppm, in a flask at 25° C.

[2] = simple oral immediate release prototypes, animals; cited from earlier work
[3] = pH 3, 0 h, in the presence of air
[4] = pH 3, 8 h, in the presence of air
[5] = pH 3, 24 h, in the presence of air
[6] = pH 3, 72 h, in the presence of air
[7] = pH 3.5, 0 h, in the presence of air
[8] = pH 3.5, 8 h, in the presence of air
[9] = pH 3.5, 24 h, in the presence of air
[10] = pH 3.5, 72 h, in the presence of air
[11] = pH 4.0, 0 h, in the presence of air
[12] = pH 4.0, 24 h, in the presence of air
[13] = pH 4.0, 72 h, in the presence of air
[14] = pH 4.5, 0 h, in the presence of air
[15] = pH 4.5, 8 h, in the presence of air
[16] = pH 4.5, 24 h, in the presence of air
[17] = pH 4.5, 72 h, in the presence of air
[18] = pH 5.0, 0 h, in the presence of air
[19] = pH 5.0, 24 h, in the presence of air
[20] = pH 5.0, 72 h, in the presence of air
[21] = pH 5.5, 0 h, in the presence of air
[22] = pH 5.5, 24 h, in the presence of air
[23] = pH 5.5, 72 h, in the presence of air
[24] = pH 6.5, 0 h, in the presence of air
[25] = pH 6.5, 8 h, in the presence of air
[26] = pH 6.5, 24 h, in the presence of air
[27] = pH 6.5, 72 h, in the presence of air
[28] = pH 8.0, 0 h, in the presence of air
[29] = pH 8.0, 8 h, in the presence of air
[30] = pH 8.0, 24 h, in the presence of air
[31] = pH 8.0, 72 h, in the presence of air

## CN(C)c1cc(NC(=O)CNC(C)(C)C)c(O)c2c1C[C@H]1C[C@H]3[C@H](N(C)C)C(O)=C(C(N)=O)C(=O)[C@@]3(O)C(O)=C1C2=O [tigecycline, Tigecycline]
[1]; in the presence of air
  pH at which the solution is most stable, based on total impurity content and tigecycline content: 4.5-5.0
[1]; oxygen <1 ppm
  pH at which the solution is most stable: 4.5-6.0
[1]; [3]
  Total impurity content as a % of initial weight of tigecycline: 0.36%
  Total tigecycline epimer content as a % of initial weight of tigecycline: 0.19%
[1]; pH 3.0, 0 h, in the presence of air
  Percentage of tigecycline remaining: 100%
[1]; pH 3, 0 h, oxygen <1 ppm
  Total impurity content as a % of initial weight of tigecycline: 0.258%
  Total tigecycline epimer content as a % of initial weight of tigecycline: 0.152%
[1]; pH 3.0, 0 h, oxygen <1 ppm
  Percentage of tigecycline remaining: 100.0%
[1]; [4]
  Total impurity content as a % of initial weight of tigecycline: 0.907%
  Total tigecycline epimer content as a % of initial weight of tigecycline: 0.83%
[1]; pH 3.0, 8 h, in the presence of air
  Percentage of tigecycline remaining: 100%
[1]; pH 3, 8 h, oxygen <1 ppm
  Total impurity content as a % of initial weight of tigecycline: 0.628%
  Total tigecycline epimer content as a % of initial weight of tigecycline: 0.485%
[1]; pH 3.0, 8 h, oxygen <1 ppm
  Percentage of tigecycline remaining: 99.55%
[1]; [5]
  Total impurity content as a % of initial weight of tigecycline: 2.564%
  Total tigecycline epimer content as a % of initial weight of tigecycline: 2.27%
[1]; pH 3.0, 24 h, in the presence of air
  Percentage of tigecycline remaining: 98%
[1]; pH 3, 24 h, oxygen <1 ppm
  Total impurity content as a % of initial weight of tigecycline: 2.391%
  Total tigecycline epimer content as a % of initial weight of tigecycline: 2.267%
[1]; pH 3.0, 24 h, oxygen <1 ppm
  Percentage of tigecycline remaining: 98.08%
[1]; [6]
  Total impurity content as a % of initial weight of tigecycline: 8.3%
  Total tigecycline epimer content as a % of initial weight of tigecycline: 7.58%
[1]; pH 3.0, 72 h, in the presence of air
  Percentage of tigecycline remaining: 93%
[1]; pH 3, 72 h, oxygen <1 ppm
  Total impurity content as a % of initial weight of tigecycline: 7.853%
  Total tigecycline epimer content as a % of initial weight of tigecycline: 7.651%
[1]; pH 3.0, 72 h, oxygen <1 ppm
  Percentage of tigecycline remaining: 92.24%
[1]; [7]
  Percentage of tigecycline remaining: 100%
  Total impurity content as a % of initial weight of tigecycline: 0.35%
  Total tigecycline epimer content as a % of initial weight of tigecycline: 0.18%
[1]; pH 3.5, 0 h, oxygen <1 ppm
  Percentage of tigecycline remaining: 100.0%
  Total impurity content as a % of initial weight of tigecycline: 0.245%
  Total tigecycline epimer content as a % of initial weight of tigecycline: 0.133%
[1]; [8]
  Percentage of tigecycline remaining: 100%
  Total impurity content as a % of initial weight of tigecycline: 0.737%
  Total tigecycline epimer content as a % of initial weight of tigecycline: 0.47%
[1]; pH 3.5, 8 h, oxygen <1 ppm
  Percentage of tigecycline remaining: 100.19%
  Total impurity content as a % of initial weight of tigecycline: 0.559%
  Total tigecycline epimer content as a % of initial weight of tigecycline: 0.383%
[1]; [9]
  Percentage of tigecycline remaining: 100%
  Total impurity content as a % of initial weight of tigecycline: 1.727%
  Total tigecycline epimer content as a % of initial weight of tigecycline: 1.45%
[1]; pH 3.5, 24 h, oxygen <1 ppm
  Percentage of tigecycline remaining: 99.26%
  Total impurity content as a % of initial weight of tigecycline: 1.478%
  Total tigecycline epimer content as a % of initial weight of tigecycline: 1.351%
[1]; [10]
  Percentage of tigecycline remaining: 95%
  Total impurity content as a % of initial weight of tigecycline: 5.521%
  Total tigecycline epimer content as a % of initial weight of tigecycline: 4.83%
[1]; pH 3.5, 72 h, oxygen <1 ppm
  Percentage of tigecycline remaining: 96.03%
  Total impurity content as a % of initial weight of tigecycline: 4.913%
  Total tigecycline epimer content as a % of initial weight of tigecycline: 4.671%
[1]; [11]
  Percentage of tigecycline remaining: 100%
  Total impurity content as a % of initial weight of tigecycline: 0.32%
  Total tigecycline epimer content as a % of initial weight of tigecycline: 0.189%
[1]; [12]
  Percentage of tigecycline remaining: 100%
  Total impurity content as a % of initial weight of tigecycline: 1.06%
  Total tigecycline epimer content as a % of initial weight of tigecycline: 0.90%
[1]; [13]
  Percentage of tigecycline remaining: 98%
  Total impurity content as a % of initial weight of tigecycline: 3.129%
  Total tigecycline epimer content as a % of initial weight of tigecycline: 2.90%
[1]; [14]
  Percentage of tigecycline remaining: 100%
  Total impurity content as a % of initial weight of tigecycline: 0.30%
  Total tigecycline epimer content as a % of initial weight of tigecycline: 0.16%
[1]; pH 4.5, 0 h, oxygen <1 ppm
  Percentage of tigecycline remaining: 100.0%
  Total impurity content as a % of initial weight of tigecycline: 0.232%
  Total tigecycline epimer content as a % of initial weight of tigecycline: 0.116%
[1]; [15]
  Percentage of tigecycline remaining: 100%
  Total impurity content as a % of initial weight of tigecycline: 0.483%
  Total tigecycline epimer content as a % of initial weight of tigecycline: 0.30%
[1]; pH 4.5, 8 h, oxygen <1 ppm
  Percentage of tigecycline remaining: 99.69%
  Total impurity content as a % of initial weight of tigecycline: 0.368%
  Total tigecycline epimer content as a % of initial weight of tigecycline: 0.233%
[1]; [16]
  Percentage of tigecycline remaining: 99%
  Total impurity content as a % of initial weight of tigecycline: 0.75%
  Total tigecycline epimer content as a % of initial weight of tigecycline: 0.65%
[1]; pH 4.5, 24 h, oxygen <1 ppm
  Percentage of tigecycline remaining: 99.72%
  Total impurity content as a % of initial weight of tigecycline: 0.682%
  Total tigecycline epimer content as a % of initial weight of tigecycline: 0.547%
[1]; [17]
  Percentage of tigecycline remaining: 97%
  Total impurity content as a % of initial weight of tigecycline: 2.625%
  Total tigecycline epimer content as a % of initial weight of tigecycline: 1.95%
[1]; pH 4.5, 72 h, oxygen <1 ppm
  Percentage of tigecycline remaining: 98.50%
  Total impurity content as a % of initial weight of tigecycline: 2.365%
  Total tigecycline epimer content as a % of initial weight of tigecycline: 1.934%
[1]; [18]
  Percentage of tigecycline remaining: 100%
  Total impurity content as a % of initial weight of tigecycline: 0.29%
  Total tigecycline epimer content as a % of initial weight of tigecycline: 0.167%
[1]; [19]
  Percentage of tigecycline remaining: 101%
  Total impurity content as a % of initial weight of tigecycline: 0.691%
  Total tigecycline epimer content as a % of initial weight of tigecycline: 0.49%
[1]; [20]
  Percentage of tigecycline remaining: 99%
  Total impurity content as a % of initial weight of tigecycline: 2.632%
  Total tigecycline epimer content as a % of initial weight of tigecycline: 1.69%
[1]; [21]
  Percentage of tigecycline remaining: 100%
  Total impurity content as a % of initial weight of tigecycline: 0.31%
  Total tigecycline epimer content as a % of initial weight of tigecycline: 0.162%
[1]; [22]
  Percentage of tigecycline remaining: 99%
  Total impurity content as a % of initial weight of tigecycline: 0.865%
  Total tigecycline epimer content as a % of initial weight of tigecycline: 0.52%
[1]; [23]
  Percentage of tigecycline remaining: 97%
  Total impurity content as a % of initial weight of tigecycline: 3.221%
  Total tigecycline epimer content as a % of initial weight of tigecycline: 1.31%
[1]; [24]
  Percentage of tigecycline remaining: 100%
  Total impurity content as a % of initial weight of tigecycline: 0.31%
  Total tigecycline epimer content as a % of initial weight of tigecycline: 0.15%
[1]; pH 6.5, 0 h, oxygen <1 ppm
  Percentage of tigecycline remaining: 100.0%
  Total impurity content as a % of initial weight of tigecycline: 0.224%
  Total tigecycline epimer content as a % of initial weight of tigecycline: 0.111%
[1]; [25]
  Percentage of tigecycline remaining: 100%
  Total impurity content as a % of initial weight of tigecycline: 0.602%
  Total tigecycline epimer content as a % of initial weight of tigecycline: 0.26%
[1]; pH 6.5, 8 h, oxygen <1 ppm
  Percentage of tigecycline remaining: 100.56%
  Total impurity content as a % of initial weight of tigecycline: 0.399%
  Total tigecycline epimer content as a % of initial weight of tigecycline: 0.188%
[1]; [26]
  Percentage of tigecycline remaining: 100%
  Total impurity content as a % of initial weight of tigecycline: 1.429%
  Total tigecycline epimer content as a % of initial weight of tigecycline: 0.43%
[1]; pH 6.5, 24 h, oxygen <1 ppm
  Percentage of tigecycline remaining: 99.59%
  Total impurity content as a % of initial weight of tigecycline: 0.812%
  Total tigecycline epimer content as a % of initial weight of tigecycline: 0.45%
[1]; [27]
  Percentage of tigecycline remaining: 86%
  Total impurity content as a % of initial weight of tigecycline: 11.78%
  Total tigecycline epimer content as a % of initial weight of tigecycline: 1.08%
[1]; pH 6.5, 72 h, oxygen <1 ppm
  Percentage of tigecycline remaining: 98.03%
  Total impurity content as a % of initial weight of tigecycline: 2.654%
  Total tigecycline epimer content as a % of initial weight of tigecycline: 1.532%
[1]; [28]
  Percentage of tigecycline remaining: 100%
  Total impurity content as a % of initial weight of tigecycline: 0.30%
  Total tigecycline epimer content as a % of initial weight of tigecycline: 0.14%
[1]; pH 8.0, 0 h, oxygen <1 ppm
  Percentage of tigecycline remaining: 100.0%
  Total impurity content as a % of initial weight of tigecycline: 0.22%
  Total tigecycline epimer content as a % of initial weight of tigecycline: 0.107%
[1]; [29]
  Percentage of tigecycline remaining: 100%
  Total impurity content as a % of initial weight of tigecycline: 0.924%
  Total tigecycline epimer content as a % of initial weight of tigecycline: 0.27%
[1]; pH 8.0, 8 h, oxygen <1 ppm
  Percentage of tigecycline remaining: 100.81%
  Total impurity content as a % of initial weight of tigecycline: 0.443%
  Total tigecycline epimer content as a % of initial weight of tigecycline: 0.192%
[1]; [30]
  Percentage of tigecycline remaining: 95%
  Total impurity content as a % of initial weight of tigecycline: 3.737%
  Total tigecycline epimer content as a % of initial weight of tigecycline: 0.43%
[1]; pH 8.0, 24 h, oxygen <1 ppm
  Percentage of tigecycline remaining: 99.64%
  Total impurity content as a % of initial weight of tigecycline: 1.214%
  Total tigecycline epimer content as a % of initial weight of tigecycline: 0.425%
[1]; [31]
  Percentage of tigecycline remaining: 57%
  Total impurity content as a % of initial weight of tigecycline: 29.654%
  Total tigecycline epimer content as a % of initial weight of tigecycline: 1.23%
[1]; pH 8.0, 72 h, oxygen <1 ppm
  Percentage of tigecycline remaining: 95.98%
  Total impurity content as a % of initial weight of tigecycline: 3.461%
  Total tigecycline epimer content as a % of initial weight of tigecycline: 1.516%
[2]
  bioavailability: poor bioavailability
